For assay [1], the target named is T1, FhCaBP4 (Fasciola hepatica calcium-binding protein 4) (Fasciola hepatica, UniProt I6U578).
T1 construct: full-length (residues 1–191), C-terminal 6×His-tag (LEHHHHHH)
Description: microscale thermophoresis (MST), labelled purified protein. On the technique in general: In MST a laser heats a spot of the sample, and binding alters the fluorescence response.

Assay [2] addresses Fasciola hepatica calcium-binding protein 4 (FhCaBP4), full-length (residues 1–191) (Fasciola hepatica). Description: crystal structure; apo form at 1.93 Å, space group P212121, two molecules per asymmetric unit; crystals grown at 20 °C by vapor diffusion with 2 M ammonium sulfate, 0.1 M sodium citrate/citric acid pH 5.5.

The Kd is the free concentration of one partner at which half of the binding sites on the other are occupied at equilibrium, for simple one-to-one binding. For the compound `CN(C)CCCN1c2ccccc2Sc2ccc(Cl)cc21` [CPZ], in assay [1], the Kd is 289 ± 99.6 µM.

A word on the stoichiometry N: it is the number of molecules, sites or subunits per partner or assembly. Regarding “Fasciola hepatica calcium-binding protein 4 (FhCaBP4), full-length (residues 1–191) (natural protein)”, the stoichiometry N in assay [2] is 2.

`NCCCCCCNS(=O)(=O)c1cccc2c(Cl)cccc12` [W7]: the Kd in assay [1] came out at 471 ± 157 µM.

Turning to `CN1CCN(CCCN2c3ccccc3Sc3ccc(C(F)(F)F)cc32)CC1` [TFP], in assay [1], the dissociation constant Kd came to 699 ± 341 µM.

(Values after PMC12347358, “Structural Insights and Calcium-Switching Mechanism of Fasciola hepatica Calcium-Binding Protein FhCaBP4” (International Journal of Molecular Sciences, 2025).)
